“Also recorded” adds a separate entry of the source. Marks after values point to notes of the source that are not given here.
Key:
[1] = system: C57/blc mice with DSS-induced UC; test: DSS-induced acute UC in C57/blc mice; type: in vivo; details: for colon histopathology (inflammatory lesion): HE×200
Method: (§1) (1) Method: In vivo test was carried out according to the literature: Y. Yoshioka, H. Akiyama, M. Nakano, T. Shoji, T. Kanda, Y. Ohtake, T. Takita, R. Matsuda, T. Maitani. Orally administered apple procyanidins protect against experimental inflammatory bowel disease in mice, international immunopharmacology, 2008, 1802-1807.
DAI is evaluated by weight loss, shape of stool, hematochezia, and other indicators; macroscopic score of colon tissue is evaluated by intestinal mucosal hyperemia, edema of intestinal wall, ulcer size, and other indicators. The lower the DAI and macroscopic score is, the more close to the physiological state of the normal animal. In Table 3: **p<0.01 when compared with the normal control group; ##p<0.01 when compared with the model group.

[2] = system: xbp1 upstream promoter; test: Transcriptional activation of pGL3-pxbp1 (dual luciferase reporter gene) in IEC-6 cells; type: cell-based; details: Rattus norvegicus, IEC-6 cells transfected with pGL3-pxbp1, 36 h-48 h, read-out: EC50 of transcriptional activation effect on xbp1 gene
Method: (§2) (1) Method: IEC-6 cells in the period of vigorous growth were seed in 48 well plate at a density of 5×10^4 to disperse the cells uniform and then it was placed in a humidifying cell incubator filled with 5% CO2 at 37° C. to incubate. Plasmid transfection (0.6 μg/well) was carried out when the cells confluencing up to 70%-80%. After 4 h, each compound of 1×10^−5 mol/L was added into these wells (n=3), respectively, and incubated for another 36 h-48 h together with existing transfected cells. Luciferase activity detection on test samples was proceeded using dual luciferase report gene detection kit (Promega, USA).
as §2, with “logarithmic phase” for “vigorous growth”, “different concentrations” for “each compound”, “compounds 1, 2, 7, and 10 were” for “1×10^−5 mol/L was”, “added” for “added into these wells”

[3] = system: SD rats with acetic acid-induced UC; test: Acetic acid-induced acute UC in SD rats; type: in vivo
Method: as §1
Disease activity index (DAI) is evaluated by weight loss, shape of stool, hematochezia, and other indicators; macroscopic score of colon tissue is evaluated by intestinal mucosal hyperemia, edema of intestinal wall, ulcer size, and other indicators. The lower the DAI and macroscopic score is, the more close to the normal physiological state. In Table 1: **p<0.01 when compared with the normal control group; ##p<0.01 when compared with the model group.

[4] = Table 7, 300 mg/kg, model 3.85 ± 0.34
[5] = Table 7, 300 mg/kg, model 5.59 ± 1.01
[6] = Table 5, 300 mg/kg, model 3.39 ± 0.64
[7] = Table 5, 300 mg/kg, model 5.69 ± 1.12

SMILES: C1=C2c3cc4c(cc3CCN2Cc2cc3c(cc21)OCO3)OCO4 [Compound 2, dihydropseudocoptisine]
- disease activity index (DAI) inhibitory rate in UC model ([1]; 300 mg/kg): 80%
- Body weight (g) x ± SD end ([1]; Table 6, 300 mg/kg): 26.17 ± 1.5 g
- DAI [1, 4]: 1.05 ± 0.26##
- macroscopic score of colon tissue [1, 5]: 2.94 ± 0.21##
- EC50 [2]: 0.00706 µM

SMILES: CC(=O)CC1c2c(ccc3c2OCO3)C=C2c3cc4c(cc3CCN21)OCO4 (racemic) [Compound 7, (±)-8-acetonyldihydrocoptisine]
- macroscopic and histopathological results of colon tissue ([3]; 300 mg/kg): good therapeutic effect on UC
- body weight change value compared with before administration (decreased by) ([3]; 300 mg/kg, model group decreased by 19.2%): 10%
- macroscopic score ([3]; Table 1, 300 mg/kg): 2.05 ± 0.45##
- DAI ([3]; Table 1, 300 mg/kg, model 3.15 ± 0.45): 1.15 ± 0.22##
- disease activity index (DAI) inhibitory rate in UC model ([1]; 500 mg/kg): 64%
- colon histopathology (inflammatory lesion) ([1]; HD group 500 mg/kg): significant improvement on the colon inflammatory lesion; also recorded: the lesion of inflammatory bowel diseases is more significantly improved
- colon histopathology (inflammatory lesion) ([1]; LD group 125 mg/kg): the inflammatory lesions of colon tissue also has a partial remission
- colon histopathology (inflammatory lesion) ([1]; MD group 250 mg/kg): the inflammatory lesions of colon tissue also has a partial remission
- Body weight (g) x ± SD end ([1]; Table 2, HD 500 mg/kg): 21.57 ± 1.5 g
- Body weight (g) x ± SD end ([1]; Table 2, MD 250 mg/kg): 20.54 ± 2.1 g
- DAI ([1]; Table 3, HD 500 mg/kg, model 3.33 ± 0.54): 1.33 ± 0.31##
- macroscopic score of colon tissue ([1]; Table 3, HD 500 mg/kg, model 5.54 ± 1.23): 2.05 ± 0.28##
- DAI ([1]; Table 3, LD 125 mg/kg, model 3.33 ± 0.54): 3.01 ± 0.38
- macroscopic score of colon tissue ([1]; Table 3, LD 125 mg/kg, model 5.54 ± 1.23): 4.93 ± 0.61
- DAI ([1]; Table 3, MD 250 mg/kg, model 3.33 ± 0.54): 2.01 ± 0.27##
- macroscopic score of colon tissue ([1]; Table 3, MD 250 mg/kg, model 5.54 ± 1.23): 3.30 ± 0.66##
- EC50 [2]: 0.221 µM

SMILES: O=C(O)c1cc(/N=N/c2ccc(S(=O)(=O)Nc3ccccn3)cc2)ccc1O [SASP, reference compound]
- disease activity index (DAI) inhibitory rate in UC model ([1]; 300 mg/kg): 32%
- Body weight (g) x ± SD end ([1]; Table 2, 300 mg/kg): 20.09 ± 0.9 g
- DAI ([1]; Table 3, 300 mg/kg, model 3.33 ± 0.54): 2.27 ± 0.43##
- macroscopic score of colon tissue ([1]; Table 3, 300 mg/kg, model 5.54 ± 1.23): 3.24 ± 0.77##
- Body weight (g) x ± SD end ([1]; Table 4, 300 mg/kg): 21.15 ± 0.6 g
- DAI [1, 6]: 2.54 ± 0.23##
- macroscopic score of colon tissue [1, 7]: 2.95 ± 0.52##
- Body weight (g) x ± SD end ([1]; Table 6, 300 mg/kg): 25.09 ± 0.9 g
- DAI [1, 4]: 2.27 ± 0.43##
- macroscopic score of colon tissue [1, 5]: 3.24 ± 0.77##
- colon histopathology (inflammatory lesion) ([1]; positive drug SASP group): improvement of visible colitis lesions and partial recovery of structure of each layer

SMILES: C=C(C(=O)CC)c1c2c(OC)c(OC)ccc2c(C)c2[n+]1CCc1cc3c(cc1-2)OCO3 [Compound 10]
- EC50 [2]: 0.0473 µM

SMILES: C1=C2c3cc4c(cc3CCN2Cc2c1ccc1c2OCO1)OCO4 [Compound 1, dihydrocoptisine]
- disease activity index (DAI) inhibitory rate in UC model ([1]; 300 mg/kg): 69%
- Body weight (g) x ± SD end ([1]; Table 4, HD 500 mg/kg): 19.87 ± 1.0 g
- Body weight (g) x ± SD end ([1]; Table 4, LD 75 mg/kg): 21.15 ± 1.1 g
- Body weight (g) x ± SD end ([1]; Table 4, MD 250 mg/kg): 19.95 ± 1.6 g
- DAI [1, 6]: 2.33 ± 0.11##
- macroscopic score of colon tissue [1, 7]: 2.66 ± 0.46##
- DAI ([1]; Table 5, LD 75 mg/kg, model 3.39 ± 0.64): 2.99 ± 0.14#
- macroscopic score of colon tissue ([1]; Table 5, LD 75 mg/kg, model 5.69 ± 1.12): 4.93 ± 0.61
- DAI ([1]; Table 5, MD 150 mg/kg, model 3.39 ± 0.64): 1.81 ± 0.27##
- macroscopic score of colon tissue ([1]; Table 5, MD 150 mg/kg, model 5.69 ± 1.12): 2.01 ± 0.16##
- EC50 [2]: 0.00229 µM

From patent US9266897B2, “Derivatives of protoberberine biological alkaloids and use of same inhibiting ulcerative colitis” (Institute of Materia Medica, Chinese Academy of Medical …, priority 2011, dated 2016)
